Assay results from US20240150377A1, “MODULATORS OF CYSTIC FIBROSIS TRANSMEMBRANE CONDUCTANCE REGULATOR” (VERTEX PHARMACEUTICALS INCORPORATED, priority 2020, published 2024).
Values belong to the compound of their own block, whether it stands above or below them.

Biological target: T1, CFTR (Homo sapiens, UniProt P13569, DEL508-508)
T1 construct: endogenous in cells; host or cells: primary human bronchial epithelial cells from CF subjects (F508del/MF-HBE), differentiated at air-liquid interface
Assay: HBE2 assay: Ussing chamber assay of CFTR-mediated short-circuit currents
Format: cell-based
Conditions: F508del/MF-HBE cells, 18-24 hours, 20% human serum; for HBE2 Activity at 3 μM (%): 3 μM corrector; for HBE2 Activity at 3 μM (%) / Emax: with 44 nM potentiator; for EC50: corrector at a range of concentrations with 44 nM potentiator; for Emax: read-out: HBE2 Max activity (%)
In short: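 Corrector activity read as CFTR-dependent ISC (μA/cm^2): peak forskolin current minus post-inhibitor steady state. Measured at 37 °C, voltage clamp at 0 mV, on F508del/MF-HBE epithelia grown >14 days air-liquid interface in Ussing chambers.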

T1 sequence (P13569 with tags, fused parts or gaps DEL508-508): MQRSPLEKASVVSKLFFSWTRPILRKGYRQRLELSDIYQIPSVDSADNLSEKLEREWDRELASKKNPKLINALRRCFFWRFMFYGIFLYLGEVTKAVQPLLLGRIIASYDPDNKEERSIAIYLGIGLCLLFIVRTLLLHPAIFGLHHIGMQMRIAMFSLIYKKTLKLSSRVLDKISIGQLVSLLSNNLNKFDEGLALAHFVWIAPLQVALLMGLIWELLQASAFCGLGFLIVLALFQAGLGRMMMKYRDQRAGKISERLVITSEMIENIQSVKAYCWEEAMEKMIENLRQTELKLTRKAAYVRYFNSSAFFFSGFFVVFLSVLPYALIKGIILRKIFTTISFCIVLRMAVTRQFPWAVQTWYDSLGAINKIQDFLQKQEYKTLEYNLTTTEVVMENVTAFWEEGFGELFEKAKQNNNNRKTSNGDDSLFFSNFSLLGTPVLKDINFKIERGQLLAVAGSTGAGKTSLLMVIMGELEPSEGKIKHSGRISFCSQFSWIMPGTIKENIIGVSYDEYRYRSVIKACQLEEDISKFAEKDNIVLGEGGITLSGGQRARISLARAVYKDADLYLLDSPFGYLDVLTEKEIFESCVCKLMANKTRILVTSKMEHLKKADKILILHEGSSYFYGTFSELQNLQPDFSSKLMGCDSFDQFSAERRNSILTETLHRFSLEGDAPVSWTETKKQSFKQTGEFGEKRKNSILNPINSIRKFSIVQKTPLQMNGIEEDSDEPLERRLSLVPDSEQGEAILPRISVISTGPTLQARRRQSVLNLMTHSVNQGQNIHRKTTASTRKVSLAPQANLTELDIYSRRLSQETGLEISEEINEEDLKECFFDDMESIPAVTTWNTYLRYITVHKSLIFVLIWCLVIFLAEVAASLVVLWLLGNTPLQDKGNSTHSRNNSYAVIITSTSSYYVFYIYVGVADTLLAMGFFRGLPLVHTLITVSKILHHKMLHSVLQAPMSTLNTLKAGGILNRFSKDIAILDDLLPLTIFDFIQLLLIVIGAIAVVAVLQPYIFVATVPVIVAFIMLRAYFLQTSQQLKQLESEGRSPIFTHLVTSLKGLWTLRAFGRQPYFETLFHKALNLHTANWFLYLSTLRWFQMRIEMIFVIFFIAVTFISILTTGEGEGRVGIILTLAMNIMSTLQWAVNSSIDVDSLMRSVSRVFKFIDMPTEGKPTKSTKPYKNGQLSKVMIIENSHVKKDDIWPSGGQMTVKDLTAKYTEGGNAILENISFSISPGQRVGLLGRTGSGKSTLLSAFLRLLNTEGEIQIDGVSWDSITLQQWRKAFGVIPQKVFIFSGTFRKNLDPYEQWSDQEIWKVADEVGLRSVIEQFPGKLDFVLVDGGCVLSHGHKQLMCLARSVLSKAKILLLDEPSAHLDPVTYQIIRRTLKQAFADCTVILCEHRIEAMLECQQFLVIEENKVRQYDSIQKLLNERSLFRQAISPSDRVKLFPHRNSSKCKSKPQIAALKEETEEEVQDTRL

Structure (SMILES): Cc1cccc(C)c1-c1cc2nc(n1)NS(=O)(=O)c1cccc(c1)C(=O)N(Cc1cncc(N3CCC[C@H]3C(C)C)n1)[C@H](CCC1CC1)CO2 [Compound 1720]
HBE2 Activity at 3 μM (%): +++ (+++ is >60+)
EC50: < 1000 nM
Emax: > 60%

Structure (SMILES): CC[C@@H]1CCN1c1cncc(CN2C(=O)c3cccc(c3)S(=O)(=O)Nc3nc(cc(-c4c(C)cccc4C)n3)OC[C@H]2CC(C)(C)C)n1 [Compound 1721]
HBE2 Activity at 3 μM (%): +++ (+++ is >60+)

Structure (SMILES): Cc1cccc(C)c1-c1cc2nc(n1)NS(=O)(=O)c1cccc(c1)C(=O)N(Cc1cncc(N3CCCC[C@H]3C)n1)[C@H](CCC(C)(C)C)CO2 [Compound 1725]
HBE2 Activity at 3 μM (%): +++ (+++ is >60+)
EC50: < 1000 nM
Emax: > 60%

Structure (SMILES): Cc1cccc(C)c1-c1cc2nc(n1)NS(=O)(=O)c1cccc(c1)C(=O)N(Cc1cncc(N3CC[C@H]3C)n1)[C@H](CCC(C)(C)C)CO2 [Compound 1726]
HBE2 Activity at 3 μM (%): +++ (+++ is >60+)
EC50: < 1000 nM
Emax: > 60%

Structure (SMILES): CCC(C)CN(C)c1cncc(CN2C(=O)c3cccc(c3)S(=O)(=O)Nc3nc(cc(-c4c(C)cccc4C)n3)OC[C@H]2CC(C)(C)C)n1 (stereo partly drawn) [Compound 1727]
HBE2 Activity at 3 μM (%): +++ (+++ is >60+)

Structure (SMILES): Cc1cccc(C)c1-c1cc2nc(n1)NS(=O)(=O)c1cccc(c1)C(=O)N(Cc1cncc(N3[C@H](C)C[C@@H]3C)n1)[C@H](CC(C)(C)C)CO2 [Compound 1728]
HBE2 Activity at 3 μM (%): +++ (+++ is >60+)

Structure (SMILES): Cc1cc(C)c(-c2cc3nc(n2)NS(=O)(=O)c2cccc(c2)C(=O)N(Cc2cncc(N(C)C4CCC4)n2)[C@H](CC(C)(C)C)CO3)c(C)c1 [Compound 1729]
HBE2 Activity at 3 μM (%): +++ (+++ is >60+)

Structure (SMILES): COC[C@@H]1CCN1c1cncc(CN2C(=O)c3cccc(c3)S(=O)(=O)Nc3nc(cc(-c4c(C)cccc4C)n3)OC[C@H]2CCC(C)(C)C)n1 [Compound 1730]
HBE2 Activity at 3 μM (%): +++ (+++ is >60+)
EC50: < 1000 nM
Emax: > 60%

Structure (SMILES): Cc1cccc(C)c1-c1cc2nc(n1)NS(=O)(=O)c1cccc(c1)C(=O)N(Cc1cncc(N(C)C3CCC3)n1)[C@H](c1ccccc1)CO2 [Compound 1731]
HBE2 Activity at 3 μM (%): +++ (+++ is >60+)

Structure (SMILES): Cc1cccc(C)c1-c1cc2nc(n1)NS(=O)(=O)c1cccc(c1)C(=O)N(Cc1cncc(N(C)C3CCC3)n1)[C@H](C(C)(C)C)CO2 [Compound 1732]
HBE2 Activity at 3 μM (%): +++ (+++ is >60+)

Structure (SMILES): Cc1cccc(C)c1-c1cc2nc(n1)NS(=O)(=O)c1cccc(c1)C(=O)N(Cc1cncc(N(C)C3CCC3)n1)[C@H](C1CCCCC1)CO2 [Compound 1733]
HBE2 Activity at 3 μM (%): +++ (+++ is >60+)
EC50: < 1000 nM
Emax: > 60%

Structure (SMILES): Cc1cccc(C)c1-c1cc2nc(n1)NS(=O)(=O)c1cccc(c1)C(=O)N(Cc1nccc(N(C)C(C)C)n1)[C@H](CCC(C)C)CO2 [Compound 1734]
HBE2 Activity at 3 μM (%): +++ (+++ is >60+)

Structure (SMILES): Cc1cccc(C)c1-c1cc2nc(n1)NS(=O)(=O)c1cccc(c1)C(=O)N(Cc1cncc(N(C)CC(C)(C)C)n1)[C@H](CCC(C)(C)C)CO2 [Compound 1739]
HBE2 Activity at 3 μM (%): +++ (+++ is >60+)

Structure (SMILES): Cc1cccc(C)c1-c1cc2nc(n1)NS(=O)(=O)c1cccc(c1)C(=O)N(Cc1cncc(N(C)C3CCC3)n1)[C@@H]1CN(CCC(C)(C)C)C[C@H]1O2 [Compound 1741]
HBE2 Activity at 3 μM (%): ++ (++ is 30-60%)

Structure (SMILES): Cc1cccc(C)c1-c1cc2nc(n1)NS(=O)(=O)c1cccc(c1)C(=O)N(Cc1cncc(N(C)C3CCC3)n1)[C@@H]1CN(C3CC4(CC4)C3)C[C@H]1O2 [Compound 1742]
HBE2 Activity at 3 μM (%): +++ (+++ is >60+)

Structure (SMILES): Cc1cccc(C)c1-c1cc2nc(n1)NS(=O)(=O)c1cccc(c1)C(=O)N(Cc1cncc(N3CCC[C@H]3C)n1)[C@H](CC1(C)CCC1)CO2 [Compound 1743]
HBE2 Activity at 3 μM (%): +++ (+++ is >60+)

Structure (SMILES): Cc1cccc(C)c1-c1cc2nc(n1)NS(=O)(=O)c1cccc(c1)C(=O)N(Cc1cncc(N3CCCC[C@H]3C)n1)[C@H](CC1(C)CCC1)CO2 [Compound 1744]
HBE2 Activity at 3 μM (%): +++ (+++ is >60+)

Structure (SMILES): Cc1cccc(C)c1-c1cc2nc(n1)NS(=O)(=O)c1cccc(c1)C(=O)N(Cc1cncc(N(C)C(C)C)n1)[C@H](CC1(C)CCC1)CO2 [Compound 1745]
HBE2 Activity at 3 μM (%): +++ (+++ is >60+)

Structure (SMILES): Cc1cccc(C)c1-c1cc2nc(n1)NS(=O)(=O)c1cccc(c1)C(=O)N(Cc1cncc(N3CCC[C@@H]4CC[C@@H]43)n1)[C@H](CCC(C)C)CO2 [Compound 1747]
HBE2 Activity at 3 μM (%): +++ (+++ is >60+)

Structure (SMILES): Cc1cccc(C)c1-c1cc2nc(n1)NS(=O)(=O)c1cccc(c1)C(=O)N(Cc1cncc(N3CCCC[C@H]3C)n1)[C@H](CCC(C)C)CO2 [Compound 1749]
HBE2 Activity at 3 μM (%): +++ (+++ is >60+)

Structure (SMILES): Cc1cccc(C)c1-c1cc2nc(n1)NS(=O)(=O)c1cccc(c1)C(=O)N(Cc1cncc(N3CC(C)(C)[C@H]3C(C)C)n1)[C@H](CC(C)(C)C)CO2 [Compound 1750]
HBE2 Activity at 3 μM (%): +++ (+++ is >60+)

Structure (SMILES): Cc1cccc(C)c1-c1cc2nc(n1)NS(=O)(=O)c1cccc(c1)C(=O)N(Cc1cncc(N3CC4(CCC4)[C@H]3C(C)C)n1)[C@H](CC(C)(C)C)CO2 [Compound 1752]
HBE2 Activity at 3 μM (%): +++ (+++ is >60+)

Structure (SMILES): CCC(CC)N(C)c1cncc(CN2C(=O)c3cccc(c3)S(=O)(=O)Nc3nc(cc(-c4c(C)cccc4C)n3)OC[C@H]2CC(C)(C)C)n1 [Compound 1754]
HBE2 Activity at 3 μM (%): +++ (+++ is >60+)

Structure (SMILES): Cc1cccc(C)c1-c1cc2nc(n1)NS(=O)(=O)c1cccc(c1)C(=O)N(Cc1cnc3ccn(CC(C)C)c3n1)[C@H](CC(C)(C)C)CO2 [Compound 1755]
HBE2 Activity at 3 μM (%): +++ (+++ is >60+)

Structure (SMILES): Cc1cccc(C)c1-c1cc2nc(n1)NS(=O)(=O)c1cccc(c1)C(=O)N(Cc1cnc3cc(C(C)C)n(C)c3n1)[C@H](CC(C)(C)C)CO2 [Compound 1756]
HBE2 Activity at 3 μM (%): +++ (+++ is >60+)

Structure (SMILES): Cc1cccc(C)c1-c1cc2nc(n1)NS(=O)(=O)c1cccc(c1)C(=O)N(Cc1cncc(N(C)CC3(C)CC3)n1)[C@H](CC(C)(C)C)CO2 [Compound 1757]
HBE2 Activity at 3 μM (%): +++ (+++ is >60+)

Structure (SMILES): COC1(CN(C)c2cncc(CN3C(=O)c4cccc(c4)S(=O)(=O)Nc4nc(cc(-c5c(C)cccc5C)n4)OC[C@H]3CC(C)(C)C)n2)CCC1 [Compound 1758]
HBE2 Activity at 3 μM (%): +++ (+++ is >60+)

Structure (SMILES): Cc1cccc(C)c1-c1cc2nc(n1)NS(=O)(=O)c1cccc(c1)C(=O)N(Cc1cncc(N(C)CC(C)(C)F)n1)[C@H](CC(C)(C)C)CO2 [Compound 1759]
HBE2 Activity at 3 μM (%): +++ (+++ is >60+)

More lines, now with the values ahead:

HBE2 Activity at 3 μM (%): +++ (+++ is >60+)
Structure (SMILES): Cc1cccc(C)c1-c1cc2nc(n1)NS(=O)(=O)c1cccc(c1)C(=O)N(Cc1cncc(N3CCO[C@@H](C)[C@H]3C)n1)[C@H](CC(C)(C)C)CO2 [Compound 1761]

HBE2 Activity at 3 μM (%): +++ (+++ is >60+)
Structure (SMILES): Cc1cccc(C)c1-c1cc2nc(n1)NS(=O)(=O)c1cccc(c1)C(=O)N(Cc1cccc(N(C)C(C)C)n1)[C@H](CC1(C)CCC1)CO2 [Compound 1762]

HBE2 Activity at 3 μM (%): +++ (+++ is >60+)
Structure (SMILES): Cc1cccc(C)c1-c1cc2nc(n1)NS(=O)(=O)c1cccc(c1)C(=O)N(Cc1cncc(N(C)CC(C)C)n1)[C@H](CCC(C)C)CO2 [Compound 1763]

HBE2 Activity at 3 μM (%): +++ (+++ is >60+)
Structure (SMILES): CCN(c1cncc(CN2C(=O)c3cccc(c3)S(=O)(=O)Nc3nc(cc(-c4c(C)cccc4C)n3)OC[C@H]2CCC(C)C)n1)C1CCC1 [Compound 1764]

HBE2 Activity at 3 μM (%): +++ (+++ is >60+)
Structure (SMILES): Cc1cccc(C)c1-c1cc2nc(n1)NS(=O)(=O)c1cccc(c1)C(=O)N(Cc1cncc(N(C)C3CCC3)n1)[C@@H]1CCN(CCC(C)(C)C)C[C@H]1O2 [Compound 1766]

HBE2 Activity at 3 μM (%): +++ (+++ is >60+)
Structure (SMILES): Cc1cccc(C)c1-c1cc2nc(n1)NS(=O)(=O)c1cccc(c1)C(=O)N(Cc1cncc(N(C)C3CCC3)n1)[C@@H]1CCN(C3CC4(CC4)C3)C[C@H]1O2 [Compound 1767]

HBE2 Activity at 3 μM (%): +++ (+++ is >60+)
Structure (SMILES): Cc1cccc(C)c1-c1cc2nc(n1)NS(=O)(=O)c1cccc(c1)C(=O)N(Cc1cncc(N(C)C3CCC3)n1)[C@@H]1CCN(C3CC4(CCCC4)C3)C[C@H]1O2 [Compound 1768]

HBE2 Activity at 3 μM (%): +++ (+++ is >60+)
Structure (SMILES): Cc1cccc(C)c1-c1cc2nc(n1)NS(=O)(=O)c1cccc(c1)C(=O)N(Cc1cncc(N3CC(F)(F)[C@H]3C)n1)[C@H](CC(C)(C)C)CO2 [Compound 1769]

HBE2 Activity at 3 μM (%): +++ (+++ is >60+)
Structure (SMILES): Cc1cccc(C)c1-c1cc2nc(n1)NS(=O)(=O)c1cccc(c1)C(=O)N(Cc1cncc(N(C)C3CCC3)n1)[C@H](CC(C)C)CCO2 [Compound 1770]

HBE2 Activity at 3 μM (%): +++ (+++ is >60+)
Structure (SMILES): Cc1cccc(C)c1-c1cc2nc(n1)NS(=O)(=O)c1cccc(c1)C(=O)N(Cc1cncc(N(C)C(C)C)n1)[C@H](CCC(C)C)CO2 [Compound 1771]

HBE2 Activity at 3 μM (%): +++ (+++ is >60+)
Structure (SMILES): Cc1cccc(C)c1-c1cc2nc(n1)NS(=O)(=O)c1cccc(c1)C(=O)N(Cc1cncc(N(C)CC(C)C)n1)[C@H](CC1(C)CCC1)CO2 [Compound 1774]

HBE2 Activity at 3 μM (%): +++ (+++ is >60+)
Structure (SMILES): Cc1cccc(C)c1-c1cc2nc(n1)NS(=O)(=O)c1cccc(c1)C(=O)N(Cc1cncc(N3CCC[C@H]3C(C)C)n1)[C@H](CC1(C)CCC1)CO2 [Compound 1775]

HBE2 Activity at 3 μM (%): +++ (+++ is >60+)
Structure (SMILES): Cc1cccc(C)c1-c1cc2nc(n1)NS(=O)(=O)c1cccc(c1)C(=O)N(Cc1cccc(N3CCC[C@H]3C(C)C)n1)[C@H](CC1(C)CCC1)CO2 [Compound 1776]

HBE2 Activity at 3 μM (%): +++ (+++ is >60+)
Structure (SMILES): Cc1cccc(C)c1-c1cc2nc(n1)NS(=O)(=O)c1cccc(c1)C(=O)N(Cc1cccc(N3CCC[C@H]3C)n1)[C@H](CC1(C)CCC1)CO2 [Compound 1777]

HBE2 Activity at 3 μM (%): +++ (+++ is >60+)
Structure (SMILES): Cc1cccc(C)c1-c1cc2nc(n1)NS(=O)(=O)c1cccc(c1)C(=O)N(Cc1cncc(N3CC[C@H]3C)n1)[C@H](CC1CC1)CO2 [Compound 1778]

HBE2 Activity at 3 μM (%): +++ (+++ is >60+)
Structure (SMILES): CCC(CC)[C@@H]1COc2cc(-c3c(C)cccc3C)nc(n2)NS(=O)(=O)c2cccc(c2)C(=O)N1Cc1cncc(N(C)C2CCC2)n1 [Compound 1779]
